Experimental data as given in patent publication US20160220630A1, “AGONISTS OF GUANYLATE CYCLASE USEFUL FOR THE TREATMENT OF OPIOID INDUCED DYSFUNCTIONS” (priority 2013, published 2016).
“Also recorded” adds a separate entry of the source. Positions of bridges follow the written chain, without caps; N, C: chain ends. Non-standard residues stand in square brackets, D forms with d. Residues, ends and D or L forms follow the SMILES beside them.

Legend:
T84 cells = experiment: Short circuit current (Isc) in Ussing chamber across T84 cells monolayer
rat jejunum = experiment: Short circuit current (Isc) in Ussing chamber across rat jejunum tissue; settings: for inhibition of SP-333-stimulated Isc: inhibitor pretreatment 5 min, 1 μM SP-333
[1] = test system: female Sprague-Dawley rats; experiment: GI transit (charcoal meal) after single oral SP-333 in opioid naïve rats; assay type: in vivo, rat
Method: FIGS. 7A-B is a series of graphs showing that oral treatment with SP-333 increases GI transit in rats. […] Panel A is a bar graph showing that SP-333 increases GI transit by 5.6%, 13%, and 23% at 0.05, 0.5, and 5 mg/kg, respectively in opioid naïve animals. Panel B is a distribution graph showing the data of each individual animal.
(§1) Effect of SP-333 on opioid-induced GI transit delay in rats: The ability of opioids to delay GI transit in rats was tested by either administering 0 (vehicle) 0.25, 1 and 2.5 mg/kg of morphine or 0 (vehicle), 0.25, 2.5 and 5 mg/kg of methadone (1.5 ml/kg dose volume) by IP injection. Water served as vehicle control. Ten minutes later, a 2 mL charcoal meal consisting of 10% activated charcoal (Sigma-Aldrich, St. Louis, Mo.) and 10% gum Arabic (Sigma-Aldrich, St. Louis, Mo.) in water was administered via oral gavage. Rats were euthanized 10 min after the charcoal meal via IP injection of 150 mg/kg Beuthanasia-D solution (sodium pentobarbital, 390 mg/mL). The small intestine was removed and the total length from the pyloric sphincter to the ileocecal junction was recorded, as well as the distance travelled by the leading edge of the charcoal. Intestinal transit was determined by calculating the ratio (expressed as a percentage) of the distance between the pyloric sphincter and the leading edge of the charcoal to the distance between the pyloric sphincter and the ileocecal junction.

[2] = test system: female Sprague-Dawley CD rats; experiment: GI transit delay induced by repeated methadone administration; assay type: in vivo, rat; settings: for GI transit after repeated methadone dosing (words): repeated daily IP methadone (5 then 2.5 mg/kg)
Method: The ability of SP-333 to alleviate GI transit delay induced by repeated methadone administration was also evaluated in the similar manner. Female Sprague-Dawley CD rats 7 to 8 weeks of age (n=7/group) received via IP injection 16 doses of methadone (once daily; 7 doses @ 5 mg/kg and 9 doses @ 2.5 mg/kg). Ten minutes following each methadone dose, each group received an oral gavage of vehicle, 2.5, and 5 mg/kg of SP-333. At the end of the dosing regimen, animals were fasted overnight and GI transit was evaluated as described above.

[3] = test system: female Sprague-Dawley rats; experiment: Reversal of morphine-induced delayed GI transit by oral SP-333; assay type: in vivo, rat
Method: as §1
To evaluate the ability of SP-333 to reverse morphine induced delayed GI transit, animals were administered 2.5 mg/kg of morphine by IP injection followed immediately by oral gavage of 0 (vehicle), 0.5, 2.5, 5 and 50 mg/kg of SP-333 (1.5 ml/kg dose volume). Water served as vehicle control. Charcoal meal was administered ten minutes later and animals were euthanized ten minutes after the charcoal meal and intestinal transit was calculated as described above.

[4] = test system: female Sprague-Dawley rats; experiment: Reversal of methadone-induced delayed GI transit by oral SP-333; assay type: in vivo, rat
Method: as §1
To evaluate the ability of SP-333 to reverse methadone induced delayed GI transit, animals were administered 2.5 mg/kg of methadone by IP injection. Ten minutes later, an oral gavage of 0 (vehicle), 0.1, 0.5, 2.5, 5 and 50 mg/kg of SP-333 (1.5 ml/kg dose volume) was administered followed immediately by a 2 mL oral gavage of the charcoal meal. Ten minutes after the charcoal meal, animals were euthanized and intestinal transit was calculated as described above.

[5] = test system: female Sprague-Dawley CD rats; experiment: Methadone-induced constipation (fecal pellet output); assay type: in vivo, rat
Method: Effect of SP-333 on methadone-induced constipation in rats: To identify the methadone dose that induces constipation in rats, female Sprague-Dawley CD rats 7 to 8 weeks of age (n=6/group) were administered 0 (vehicle), 2.5, 5, and 7.5 mg/kg of methadone (1.5 ml/kg dose volume) by IP injection once a day for 5 days. Fecal pellets were collected at 4 h intervals during the light cycle and average number of pellets was recorded for each group during the course of the study following daily dose administrations of methadone.
To evaluate the ability of SP-333 to relieve methadone-induced constipation, female Sprague-Dawley CD rats 7 to 8 weeks of age (n=7/group) were administered 5 mg/kg of methadone (or vehicle) each day for 7 days via IP injection to induce constipation. Ten minutes following the IP dose each day, an oral gavage of 2.5, and 5 mg/kg of SP-333 or vehicle (buffer) was administered. Fecal pellets were collected at 4 h intervals during the light cycle and average number of pellets recorded for each group during the course of the study following daily administration of vehicle, methadone or combination of methadone and SP-333.

[6] = test system: female Sprague-Dawley rats; experiment: Opioid-induced GI transit delay after single IP opioid dose (charcoal meal); assay type: in vivo, rat
Method: Animals: All study procedures were conducted under a study outline approved by the Institutional Animal Care and Use Committee of MB Research Labs (Spinnerstown, Pa.) or Lampire Biological Laboratories (Pipersville, Pa.). Seven to eight week old female Sprague-Dawley rats [Crl:CD(SD)], weighing between ˜180-210 grams, were obtained from Charles River Laboratories and allowed to acclimate for a week. Animals were maintained on a 12 hour light-dark cycle. For intestinal tissue collection and evaluation of GI transit, rats were fasted for at least 18 hours before the experiment, with free access to water.
as §1

[7] = 5 μM methadone apical 5 min, then 1 μM SP-333
[8] = 5 μM morphine apical 5 min, then 1 μM SP-333

O=C(O)c1ccc(/C=C2\SC(=S)N(c3cccc(C(F)(F)F)c3)C2=O)cc1 [CFTRinh172]
suppression in SP-333-stimulated Isc (T84 cells; 10 μM CFTRinh172, compared with 1 μM SP-333 alone): 80% | inhibition of SP-333-stimulated Isc (rat jejunum): less compared to that detected in T84 cells

[Cl][Cd][Cl] [CdCl2]
decrease in SP-333-stimulated Isc (T84 cells; CdCl2 300 μM or mPKI 3.2 μM, 1 μM SP-333): No appreciable decrease; also recorded: minimal effect | inhibition of SP-333-stimulated Isc (rat jejunum): minimal effect

COC(=O)[C@@]1(OC)C[C@H]2O[C@]1(C)n1c3ccccc3c3c4c(c5c6ccccc6n2c5c31)C(=O)N(C)C4 [PKG-II inhibitor]
suppression of relative SP-333-stimulated Isc (T84 cells; PKG-II inhibitor 4 μM, 1 μM SP-333): approximately 35%

CC(C)C[C@@H]1NC(=O)[C@H](CCC(=O)O)NC(=O)[C@@H](NC(=O)[C@H](CCC(=O)O)NC(=O)[C@H](CC(=O)O)NC(=O)[C@H](N)CC(N)=O)CSSC[C@@H]2NC(=O)[C@H](C)NC(=O)[C@H](C(C)C)NC(=O)[C@H](CC(N)=O)NC(=O)[C@H](C(C)C)NC(=O)[C@H](CSSC[C@@H](C(=O)N[C@H](CC(C)C)C(=O)O)NC(=O)CNC(=O)[C@H]([C@@H](C)O)NC2=O)NC1=O [SP-333, dAsn^1-Asp^2-Glu^3-Cys^4-Glu^5-Leu^6-Cys^7-Val^8-Asn^9-Val^10-Ala^11-Cys^12-Thr^13-Gly^14-Cys^15-dLeu^16] (H-[dN]DECELCVNVACTGC[dL]-OH; disulfide 4-12, 7-15)
increase in Isc (chloride currents) (T84 cells; SP-333 0.01-10 μM apical): concentration-dependent increase in Isc approaching saturation at 10 μM | increase in GI (small intestinal) transit compared to vehicle controls ([1]; SP-333 0.05 mg/kg single oral gavage): 5.6% | increase in GI (small intestinal) transit compared to vehicle controls ([1]; SP-333 0.5 mg/kg single oral gavage): 13% | increase in GI (small intestinal) transit compared to vehicle controls ([1]; SP-333 5 mg/kg single oral gavage): 23% | increase in Isc (chloride currents) (rat jejunum; SP-333 0.01-10 μM apical): concentration-dependent increase in Isc approaching saturation at 10 μM | GI transit delay after repeated methadone dosing ([2]; repeated daily IP methadone (5 then 2.5 mg/kg) + SP-333 2.5 and 5 mg/kg oral): normalized GI transit; also recorded: relieved the GI-transit delay; also recorded: statistically significant improvement in GI transit delay | GI transit in morphine-treated rats ([3]; morphine 2.5 mg/kg IP + SP-333 0.5 mg/kg oral): 27% | GI transit in morphine-treated rats ([3]; morphine 2.5 mg/kg IP + SP-333 2.5 mg/kg oral): 37% | GI transit in morphine-treated rats ([3]; morphine 2.5 mg/kg IP + SP-333 5 mg/kg oral): 46% | GI transit in morphine-treated rats ([3]; morphine 2.5 mg/kg IP + SP-333 50 mg/kg oral): 48% | SP-333 dose sufficient to relieve the effect of morphine on GI transit ([3]; morphine 2.5 mg/kg IP, SP-333 oral): 5 mg/kg | delay in GI transit caused by morphine ([3]; orally administered SP-333): completely restored the delay in GI transit | GI transit in methadone-treated rats ([4]; methadone 2.5 mg/kg IP + SP-333 0.5 mg/kg oral): 40% | GI transit in methadone-treated rats ([4]; methadone 2.5 mg/kg IP + SP-333 2.5 mg/kg oral): 39% | GI transit in methadone-treated rats ([4]; methadone 2.5 mg/kg IP + SP-333 5 mg/kg oral): 44% | GI transit in methadone-treated rats ([4]; methadone 2.5 mg/kg IP + SP-333 50 mg/kg oral): 52% | SP-333 dose sufficient to relieve the effect of methadone on GI transit ([4]; methadone 2.5 mg/kg IP, SP-333 oral): 5 mg/kg | delay in GI transit caused by methadone ([4]; orally administered SP-333): completely restored the delay in GI transit | fecal pellet count compared to the methadone dosed group without SP-333 ([5]; methadone 5 mg/kg IP + SP-333 2.5 mg/kg oral, once daily 7 days): threefold increase; also recorded: significantly relieved methadone-induced constipation | fecal output / average number of pellets ([5]; methadone 5 mg/kg IP + SP-333 2.5 and 5 mg/kg oral, once daily 7 days): partially restored fecal output; also recorded: higher compared to the methadone dosed group

CCC(=O)C(CC(C)N(C)C)(c1ccccc1)c1ccccc1 (stereo not shown) [methadone]
effect of methadone pre-treatment on SP-333-stimulated Isc (T84 cells; [7]): no effect; also recorded: not adversely affected | methadone dose sufficient to significantly reduce GI transit ([6]; IP): 2.5 mg/kg | GI transit delay vs corresponding vehicle controls ([6]; methadone 2.5 mg/kg IP): 49% | effect of methadone on GI transit ([6]; methadone 0.25, 2.5 and 5 mg/kg IP): significantly reduced GI transit; also recorded: statistically significant reduction in GI transit | effect of methadone pre-treatment on SP-333-stimulated Isc (rat jejunum; [7]): no effect; also recorded: not adversely affected | GI transit after repeated methadone dosing (words) [2]: significant delay in GI transit | GI transit after repeated methadone dosing (words) ([2]; listed as Methadone): significant reduction in GI transit | effect of methadone on fecal output ([5]; daily IP methadone 2.5, 5 and 7.5 mg/kg): drastically reduced daily fecal output; also recorded: statistically significant reduction in fecal output

CN1CC[C@]23c4c5ccc(O)c4O[C@H]2[C@@H](O)C=C[C@H]3[C@H]1C5 [morphine]
effect of morphine pre-treatment on SP-333-stimulated Isc (T84 cells; [8]): negligible effect; also recorded: not adversely affected | GI transit slowed by, compared to vehicle controls ([6]; morphine 2.5 mg/kg IP single dose): 56% | effect of morphine on GI transit ([6]; morphine IP 0.25, 1.0 and 2.5 mg/kg): significantly reduced GI transit | effect of morphine pre-treatment on SP-333-stimulated Isc (rat jejunum; [8]): negligible effect; also recorded: not adversely affected
